Measured values as given in the supplement of paper PMC10307832.

What was measured:
Test in all cases: relative viability (nuclei count vs DMSO), 5 days (fraction); higher = more cells survive
[1] = compound: Cc1ccc(-n2nc(C(C)(C)C)cc2NC(=O)Nc2ccc(OCCN3CCOCC3)c3ccccc23)cc1 [Doramapimod] + O=C(CCCCCCC(=O)Nc1ccccc1)NO [Vorinostat] (partner 1 µM)
Procedure, shortened: (§1)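 Lung cancer cell lines, seeded in 1536-well plates, were treated the following day by pin tool with a single drug or with five library-drug doses (not always all listed) in √10 steps on top of a fixed anchor-drug dose. Cells were fixed and nuclei stained in one step after 5 days, and nuclei were counted. Relative viability is the nuclei count for treated wells divided by that for vehicle wells, reported as medians of duplicate plates.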

[2] = compound: C1=CC=C2C(=C1)C=CC(=C2SSC3=C(C=CC4=CC=CC=C43)O)O [IPA-3] + CS(=O)(=O)CCNCc1ccc(-c2ccc3ncnc(Nc4ccc(OCc5cccc(F)c5)c(Cl)c4)c3c2)o1 [Lapatinib] (partner 2 µM)
Procedure, shortened: as §1

[3] = compound: Cn1c(Nc2ccc(C(F)(F)F)cc2)nc2cc(Oc3ccnc(-c4ncc(C(F)(F)F)[nH]4)c3)ccc21 [RAF265] + Cc1nc(Nc2ncc(C(=O)Nc3c(C)cccc3Cl)s2)cc(N2CCN(CCO)CC2)n1 [Dasatinib] (partner 0.075 µM)
Procedure, shortened: as §1

[4] = compound: C1=CC=C2C(=C1)C=CC(=C2SSC3=C(C=CC4=CC=CC=C43)O)O [IPA-3] + CC1(C)CCC(c2ccc(Cl)cc2)=C(CN2CCN(c3ccc(C(=O)NS(=O)(=O)c4ccc(N[C@H](CCN5CCOCC5)CSc5ccccc5)c(S(=O)(=O)C(F)(F)F)c4)cc3)CC2)C1 [Navitoclax] (partner 0.5 µM)
Procedure, shortened: as §1

LOU-NH91
relative viability ([1]; first compound 0.02 µM): 0.966
relative viability ([1]; first compound 0.06325 µM): 0.944
relative viability ([1]; first compound 0.2 µM): 0.945
relative viability ([1]; first compound 0.6325 µM): 0.847
relative viability ([1]; first compound 2 µM): 0.632
relative viability ([2]; first compound 0.2 µM): 0.745
relative viability ([2]; first compound 0.6325 µM): 0.799
relative viability ([2]; first compound 2 µM): 0.74
relative viability ([2]; first compound 6.325 µM): 0.77
relative viability ([2]; first compound 20 µM): 0.789
relative viability ([3]; first compound 0.01 µM): 0.563
relative viability ([3]; first compound 0.03162 µM): 0.49
relative viability ([3]; first compound 0.1 µM): 0.497
relative viability ([3]; first compound 0.3162 µM): 0.45
relative viability ([3]; first compound 1 µM): 0.343
relative viability ([4]; first compound 0.2 µM): 0.705
relative viability ([4]; first compound 0.6325 µM): 0.67
relative viability ([4]; first compound 2 µM): 0.744
relative viability ([4]; first compound 6.325 µM): 0.67
relative viability ([4]; first compound 20 µM): 0.868

LU99A
relative viability ([1]; first compound 0.02 µM): 0.443
relative viability ([1]; first compound 0.06325 µM): 0.455
relative viability ([1]; first compound 0.2 µM): 0.578
relative viability ([1]; first compound 0.6325 µM): 0.53
relative viability ([1]; first compound 2 µM): 0.474
relative viability ([2]; first compound 0.2 µM): 0.934
relative viability ([2]; first compound 0.6325 µM): 0.95
relative viability ([2]; first compound 2 µM): 1.05
relative viability ([2]; first compound 6.325 µM): 0.922
relative viability ([2]; first compound 20 µM): 0.943
relative viability ([3]; first compound 0.01 µM): 0.534
relative viability ([3]; first compound 0.03162 µM): 0.454
relative viability ([3]; first compound 0.1 µM): 0.472
relative viability ([3]; first compound 0.3162 µM): 0.3
relative viability ([3]; first compound 1 µM): 0.179
relative viability ([4]; first compound 0.2 µM): 0.866
relative viability ([4]; first compound 0.6325 µM): 0.86
relative viability ([4]; first compound 2 µM): 0.819
relative viability ([4]; first compound 6.325 µM): 0.781
relative viability ([4]; first compound 20 µM): 0.889

LXF-289
relative viability ([1]; first compound 0.02 µM): 0.811
relative viability ([1]; first compound 0.06325 µM): 0.775
relative viability ([1]; first compound 0.2 µM): 0.747
relative viability ([1]; first compound 0.6325 µM): 0.723
relative viability ([1]; first compound 2 µM): 0.635
relative viability ([2]; first compound 0.2 µM): 0.976
relative viability ([2]; first compound 0.6325 µM): 0.869
relative viability ([2]; first compound 2 µM): 0.973
relative viability ([2]; first compound 6.325 µM): 0.941
relative viability ([2]; first compound 20 µM): 0.931
relative viability ([3]; first compound 0.01 µM): 0.246
relative viability ([3]; first compound 0.03162 µM): 0.152
relative viability ([3]; first compound 0.1 µM): 0.16
relative viability ([3]; first compound 0.3162 µM): 0.142
relative viability ([3]; first compound 1 µM): 0.0862
relative viability ([4]; first compound 0.2 µM): 0.992
relative viability ([4]; first compound 0.6325 µM): 0.911
relative viability ([4]; first compound 2 µM): 1.01
relative viability ([4]; first compound 6.325 µM): 0.957
relative viability ([4]; first compound 20 µM): 1.04

NCI-H23
relative viability ([1]; first compound 0.02 µM): 0.633
relative viability ([1]; first compound 0.06325 µM): 0.563
relative viability ([1]; first compound 0.2 µM): 0.554
relative viability ([1]; first compound 0.6325 µM): 0.656
relative viability ([1]; first compound 2 µM): 0.473
relative viability ([2]; first compound 0.2 µM): 1.16
relative viability ([2]; first compound 0.6325 µM): 1.04
relative viability ([2]; first compound 2 µM): 1.24
relative viability ([2]; first compound 6.325 µM): 1.09
relative viability ([2]; first compound 20 µM): 0.735
relative viability ([3]; first compound 0.01 µM): 0.716
relative viability ([3]; first compound 0.03162 µM): 0.75
relative viability ([3]; first compound 0.1 µM): 0.622
relative viability ([3]; first compound 0.3162 µM): 0.48
relative viability ([3]; first compound 1 µM): 0.325
relative viability ([4]; first compound 0.2 µM): 1.14
relative viability ([4]; first compound 0.6325 µM): 0.709
relative viability ([4]; first compound 2 µM): 0.858
relative viability ([4]; first compound 6.325 µM): 0.991
relative viability ([4]; first compound 20 µM): 1.1

NCI-H322M
relative viability ([1]; first compound 0.02 µM): 0.889
relative viability ([1]; first compound 0.06325 µM): 0.943
relative viability ([1]; first compound 0.2 µM): 0.979
relative viability ([1]; first compound 0.6325 µM): 0.998
relative viability ([1]; first compound 2 µM): 0.94
relative viability ([2]; first compound 0.2 µM): 0.566
relative viability ([2]; first compound 0.6325 µM): 0.66
relative viability ([2]; first compound 2 µM): 0.596
relative viability ([2]; first compound 6.325 µM): 0.566
relative viability ([2]; first compound 20 µM): 0.613
relative viability ([3]; first compound 0.01 µM): 0.267
relative viability ([3]; first compound 0.03162 µM): 0.278
relative viability ([3]; first compound 0.1 µM): 0.229
relative viability ([3]; first compound 0.3162 µM): 0.303
relative viability ([3]; first compound 1 µM): 0.213
relative viability ([4]; first compound 0.2 µM): 1.29
relative viability ([4]; first compound 0.6325 µM): 1.12
relative viability ([4]; first compound 2 µM): 1.17
relative viability ([4]; first compound 6.325 µM): 1.25
relative viability ([4]; first compound 20 µM): 1.29

NCI-H460
relative viability ([1]; first compound 0.02 µM): 0.773
relative viability ([1]; first compound 0.06325 µM): 0.817
relative viability ([1]; first compound 0.2 µM): 0.76
relative viability ([1]; first compound 0.6325 µM): 0.794
relative viability ([1]; first compound 2 µM): 0.551
relative viability ([2]; first compound 0.6325 µM): 0.807
relative viability ([2]; first compound 2 µM): 1.1
relative viability ([2]; first compound 6.325 µM): 0.889
relative viability ([2]; first compound 20 µM): 1.19
relative viability ([3]; first compound 0.01 µM): 0.686
relative viability ([3]; first compound 0.03162 µM): 0.535
relative viability ([3]; first compound 0.1 µM): 0.596
relative viability ([3]; first compound 0.3162 µM): 0.371
relative viability ([3]; first compound 1 µM): 0.266
relative viability ([4]; first compound 0.2 µM): 1.45
relative viability ([4]; first compound 0.6325 µM): 0.968
relative viability ([4]; first compound 2 µM): 1.45
relative viability ([4]; first compound 6.325 µM): 1.04
relative viability ([4]; first compound 20 µM): 1.09

NCI-H520
relative viability ([1]; first compound 0.02 µM): 0.672
relative viability ([1]; first compound 0.06325 µM): 0.755
relative viability ([1]; first compound 0.2 µM): 0.653
relative viability ([1]; first compound 0.6325 µM): 0.731
relative viability ([1]; first compound 2 µM): 0.609
relative viability ([2]; first compound 0.2 µM): 1.04
relative viability ([2]; first compound 0.6325 µM): 0.894
relative viability ([2]; first compound 2 µM): 0.697
relative viability ([2]; first compound 6.325 µM): 0.95
relative viability ([2]; first compound 20 µM): 0.729
relative viability ([3]; first compound 0.01 µM): 0.177
relative viability ([3]; first compound 0.03162 µM): 0.206
relative viability ([3]; first compound 0.1 µM): 0.197
relative viability ([3]; first compound 0.3162 µM): 0.187
relative viability ([3]; first compound 1 µM): 0.171
relative viability ([4]; first compound 0.2 µM): 1.16
relative viability ([4]; first compound 0.6325 µM): 0.971
relative viability ([4]; first compound 2 µM): 0.863
relative viability ([4]; first compound 6.325 µM): 1.02
relative viability ([4]; first compound 20 µM): 1.12

NCI-H596
relative viability ([1]; first compound 0.02 µM): 0.643
relative viability ([1]; first compound 0.06325 µM): 0.672
relative viability ([1]; first compound 0.2 µM): 0.616
relative viability ([1]; first compound 0.6325 µM): 0.605
relative viability ([1]; first compound 2 µM): 0.561
relative viability ([2]; first compound 0.2 µM): 1.09
relative viability ([2]; first compound 0.6325 µM): 1.09
relative viability ([2]; first compound 2 µM): 1.13
relative viability ([2]; first compound 6.325 µM): 1.03
relative viability ([2]; first compound 20 µM): 1.35
relative viability ([3]; first compound 0.01 µM): 0.63
relative viability ([3]; first compound 0.03162 µM): 0.76
relative viability ([3]; first compound 0.1 µM): 0.582
relative viability ([3]; first compound 0.3162 µM): 0.612
relative viability ([3]; first compound 1 µM): 0.366
relative viability ([4]; first compound 0.2 µM): 0.969
relative viability ([4]; first compound 0.6325 µM): 1.08
relative viability ([4]; first compound 2 µM): 0.985
relative viability ([4]; first compound 6.325 µM): 0.894
relative viability ([4]; first compound 20 µM): 1.16
